Values quoted from earlier work as cited in PMC7109127 (British Journal of Cancer, 2020).

What was measured:
[1] = system: HCC; conditions: first-line HCC; cited from earlier work
[2] = cited from earlier work
[3] = system: metastatic renal cell carcinoma; conditions: TIVO-1; cited from earlier work
[4] = TIVO-1; cited from earlier work
[5] = system: advanced HCC; parameters: method as in PMID 18650514; conditions: cited from earlier work
[6] = first-line HCC; cited from earlier work
[7] = system: HCC; parameters: method as in PMID 30665869, PMID 26095784; conditions: selective VEGFR-2 inhibition; cited from earlier work

COc1cc2nccc(Oc3ccc(NC(=O)NC4CC4)c(Cl)c3)c2cc1C(N)=O [lenvatinib]
ORR (RECIST 1.1) [1]: 18.8% | patients progression free at 6 months [1]: 55%

CNC(=O)c1cc(Oc2ccc(NC(=O)Nc3ccc(Cl)c(C(F)(F)F)c3)cc2)ccn1 [sorafenib]
half-life [2]: 25 to 48 h | overall response rate (ORR) [3]: 23.3% | progression-free survival (PFS) [3]: 9.1 months | diarrhoea incidence [4]: 33% | hypertension incidence [4]: 34% | palmar–plantar erythrodysesthesia incidence [4]: 54% | objective responses [5]: ≤ 2% | ORR (RECIST 1.1) [1]: 6.5% | patients progression free at 6 months [1]: 35% | Fatigue, all grades [6]: 25% | Fatigue, grade 3–4 [6]: 4%

ramucirumab
objective responses in HCC [7]: does not usually lead to objective responses
